Assay [1] addresses T1, Human P2Y12 receptor (Homo sapiens, UniProt Q9H244).
T1 construct: expressed in transfected cells; host or cells: HEK cells
As to the kind of experiment: Human P2Y12 receptor cell membrane binding assay with [3H] 2-Mes-ADP. The following applies: 1 nM [3H] 2-Mes-ADP, membranes of HEK cells expressing P2Y12 receptor; read-out: Binding activity (IC50). The method in brief:
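Competition binding used 1 nM [3H]2-MeS-ADP on P2Y12-expressing HEK cell membranes for 1 h at room temperature, followed by filtration and scintillation counting.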

In assay [2] the test system is Human platelet aggregation caused by ADP. Briefly: Inhibition of ADP-induced platelet aggregation (Mimic-human PRP). The class given is cell-based. The following applies: 20 μM ADP, human platelet concentrate diluted with PPP, absorption at 595 nm. The essentials: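 Ki came from non-linear sigmoidal fits of inhibition, measured as the 3-min rise in absorbance at 595 nm after 20 μM ADP, relative to 0/20 μM ADP controls. Platelets (3–4×10^8/mL in PPP-diluted human PRP) were exposed to 0.01–30 μM compound for 20 min at room temperature beforehand.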

Molecules are shown by their SMILES. Bounds are passed on as bounds.

T1 sequence (Q9H244 whole entry): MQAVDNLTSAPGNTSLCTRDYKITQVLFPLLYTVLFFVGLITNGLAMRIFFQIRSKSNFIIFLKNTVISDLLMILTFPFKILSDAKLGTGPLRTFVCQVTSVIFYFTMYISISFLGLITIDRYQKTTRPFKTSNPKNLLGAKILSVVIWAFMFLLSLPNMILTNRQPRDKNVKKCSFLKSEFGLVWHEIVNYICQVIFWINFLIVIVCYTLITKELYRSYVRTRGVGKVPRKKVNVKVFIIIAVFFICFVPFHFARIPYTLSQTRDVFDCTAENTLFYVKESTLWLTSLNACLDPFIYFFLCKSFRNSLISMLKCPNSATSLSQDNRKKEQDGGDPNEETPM

On to `CCCc1cc2c(N3CCn4c(nnc4C(F)(F)F)C3)nc(Oc3ccc(N4CCNCC4)cc3)nc2s1` [Example 3-46, 7-[2-(4-piperazin-1-yl-phenoxy)-6-propyl-thieno[2,3-d]pyrimidin-4-yl]-3-trifluoromethyl-5,6,7,8-tetrahydro-[1,2,4]triazolo[4,3-a]pyrazine], for which, in assay [1], the IC50 (commonly the midpoint of a concentration-inhibition curve) is 2.33 µM. Also, the Ki (commonly the dissociation constant of the complex between target and ligand, obtained from inhibition or displacement) in assay [2] was above 4 µM.
Taken in the same sequence, the figures for `CCCc1cc2c(N3CCn4c(nnc4C(F)(F)F)C3)nc(Oc3ccc(C=O)cc3)nc2s1` [Example 3-47, 4-[6-Propyl-4-(3-trifluoromethyl-5,6-dihydro-8H-[1,2,4]triazolo[4,3-a]pyrazin-7-yl)-thieno[2,3-d]pyrimidin-2-yloxy]-benzaldehyde] were 0.375 µM and above 4 µM.
Taken in the same sequence, the figures for `CCCc1cc2c(N3CCn4c(nnc4C(F)(F)F)C3)nc(Oc3ccc(CO)cc3)nc2s1` [Example 3-48, {4-[6-Propyl-4-(3-trifluoromethyl-5,6-dihydro-8H-[1,2,4]triazolo[4,3-a]pyrazin-7-yl)-thieno[2,3-d]pyrimidin-2-yloxy]-phenyl}-methanol] were 0.34 µM and above 4 µM.
As to `CCc1cc2c(N3CCn4c(nnc4C(F)(F)F)C3)nc(OCCO)nc2s1` [Example 3-50, 2-[6-Ethyl-4-(3-trifluoromethyl-5,6-dihydro-8H-[1,2,4]triazolo[4,3-a]pyrazin-7-yl)-thieno[2,3-d]pyrimidin-2-yloxy]-ethanol], in assay [1], the IC50 was 0.596 µM. The Ki in assay [2] was found to be 0.141 µM.
In the same order, the values of `CCCc1cc2c(N3CCn4c(nnc4C(F)(F)F)C3)nc(SCc3ccccc3)nc2s1` [Example 3-51, 7-(2-Benzylsulfanyl-6-propyl-thieno[2,3-d]pyrimidin-4-yl)-3-trifluoromethyl-5,6,7,8-tetrahydro-[1,2,4]triazolo[4,3-a]pyrazine] are 0.7 µM and 1.17 µM.
For `CCCc1cc2c(N3CCn4c(nnc4C(F)(F)F)C3)nc(Sc3ncccn3)nc2s1` [Example 3-53, 7-[6-Propyl-2-(pyrimidin-2-ylsulfanyl)-thieno[2,3-d]pyrimidin-4-yl]-3-trifluoromethyl-5,6,7,8-tetrahydro-[1,2,4]triazolo[4,3-a]pyrazine], the IC50 in assay [1] stood at 0.57 µM. This molecule had a Ki in assay [2] of 0.76 µM.
In the case of `CCCc1cc2c(N3CCn4c(nnc4C(F)(F)F)C3)nc(OCCNCC(=O)O)nc2s1` [Example 3-55, {2-[6-Propyl-4-(3-trifluoromethyl-5,6-dihydro-8H-[1,2,4]triazolo[4,3-a]pyrazin-7-yl)-thieno[2,3-d]pyrimidin-2-yloxy]-ethylamino}-acetic acid], the IC50 in assay [1] came to 0.15 µM. In assay [2], this molecule gave a Ki of 0.025 µM.
Taken in the same sequence, the figures for `CCCc1cc2c(N3CCn4c(nnc4C(F)(F)F)C3)nc(OCCN)nc2s1` [Example 3-58, 2-[6-Propyl-4-(3-trifluoromethyl-5,6-dihydro-8H-[1,2,4]triazolo[4,3-a]pyrazin-7-yl)-thieno[2,3-d]pyrimidin-2-yloxy]-ethylamine] were 0.4 µM and 0.021 µM.
Taken in the same sequence, the figures for `CCCc1cc2c(N3CCn4c(nnc4C(F)(F)F)C3)nc(OCCNC(=O)COC)nc2s1` [Example 3-63, 2-Methoxy-N-{2-[6-propyl-4-(3-trifluoromethyl-5,6-dihydro-8H-[1,2,4]triazolo[4,3-a]pyrazin-7-yl)-thieno[2,3-d]pyrimidin-2-yloxy]-ethyl}-acetamide] were 0.043 µM and 0.007 µM.
In the case of `CCCc1cc2c(N3CCn4c(nnc4C(F)(F)F)C3)nc(OCCNS(C)(=O)=O)nc2s1` [Example 3-64, N-{2-[6-Propyl-4-(3-trifluoromethyl-5,6-dihydro-8H-[1,2,4]triazolo[4,3-a]pyrazin-7-yl)-thieno[2,3-d]pyrimidin-2-yloxy]-ethyl}-methanesulfonamide], the IC50 in assay [1] is 0.11 µM. In assay [2], this molecule came in with a Ki of 0.15 µM.
Taken in the same sequence, the figures for `CCCc1cc2c(N3CCn4c(nnc4C(F)(F)F)C3)nc(OCCNC(=O)CN)nc2s1` [Example 3-65, 2-Amino-N-{2-[6-propyl-4-(3-trifluoromethyl-5,6-dihydro-8H-[1,2,4]triazolo[4,3-a]pyrazin-7-yl)-thieno[2,3-d]pyrimidin-2-yloxy]-ethyl}-acetamide] were 0.18 µM and 0.013 µM.
Taken in the same sequence, the figures for `CCCc1cc2c(N3CCn4c(nnc4C(F)(F)F)C3)nc(OCCNC(=O)CS(C)(=O)=O)nc2s1` [Example 3-66, 2-Methanesulfonyl-N-{2-[6-propyl-4-(3-trifluoromethyl-5,6-dihydro-8H-[1,2,4]triazolo[4,3-a]pyrazin-7-yl)-thieno[2,3-d]pyrimidin-2-yloxy]-ethyl}-acetamide] were 0.15 µM and 0.07 µM.
`CCCc1cc2c(N3CCn4c(nnc4C(F)(F)F)C3)nc(OCCNC(=O)CCCS(N)(=O)=O)nc2s1` [Example 3-67, N-{2-[6-Propyl-4-(3-trifluoromethyl-5,6-dihydro-8H-[1,2,4]triazolo[4,3-a]pyrazin-7-yl)-thieno[2,3-d]pyrimidin-2-yloxy]-ethyl}-4-sulfamoyl-butyramide]: the IC50 in assay [1] is 0.09 µM. Also, the affinity in assay [2], expressed as Ki, was 0.017 µM.
In the same order, the values of `CCCc1cc2c(N3CCn4c(nnc4C(F)(F)F)C3)nc(OCCNS(=O)(=O)C3CC3)nc2s1` [Example 3-68, Cyclopropanesulfonic Acid {2-[6-propyl-4-(3-trifluoromethyl-5,6-dihydro-8H-[1,2,4]triazolo[4,3-a]pyrazin-7-yl)-thieno[2,3-d]pyrimidin-2-yloxy]-ethyl}-amide] are 0.14 µM and 0.12 µM.
In the same order, the values of `CCCc1cc2c(N3CCn4c(nnc4C(F)(F)F)C3)nc(OCCNS(=O)(=O)C(F)(F)F)nc2s1` [Example 3-69, C,C,C-Trifluoro-N-{2-[6-propyl-4-(3-trifluoromethyl-5,6-dihydro-8H-[1,2,4]triazolo[4,3-a]pyrazin-7-yl)-thieno[2,3-d]pyrimidin-2-yloxy]-ethyl}-methanesulfonamide] are 0.18 µM and 4.1 µM.
In the same order, the values of `CCCc1cc2c(N3CCn4c(nnc4C(F)(F)F)C3)nc(OCCNC(=O)c3ccccn3)nc2s1` [Example 3-70, Pyridine-2-carboxylic acid {2-[6-propyl-4-(3-trifluoromethyl-5,6-dihydro-8H-[1,2,4]triazolo[4,3-a]pyrazin-7-yl)-thieno[2,3-d]pyrimidin-2-yloxy]-ethyl}-amide] are 0.017 µM and 0.007 µM.
For `CCCc1cc2c(N3CCn4c(nnc4C(F)(F)F)C3)nc(C(N)=O)nc2s1` [Example 4-3, 6-Propyl-4-(3-trifluoromethyl-5,6-dihydro-8H-[1,2,4]triazolo[4,3-a]pyrazin-7-yl)-thieno[2,3-d]pyrimidine-2-carboxylic acid amide], the IC50 in assay [1] was found to be 0.63 µM. Besides, the affinity in assay [2] corresponds to a Ki of 0.12 µM.
In the same order, the values of `CCCc1cc2c(N3CCn4c(nnc4C(F)(F)F)C3)nc(C(=O)NCCC(=O)OCC)nc2s1` [Example 4-6, 3-{[6-Propyl-4-(3-trifluoromethyl-5,6-dihydro-8H-[1,2,4]triazolo[4,3-a]pyrazin-7-yl)thieno[2,3-d]pyrimidine-2-carbonyl]amino}propionic acid ethyl ester] are 2.89 µM and 1.2 µM.
In the same order, the values of `CCCc1cc2c(N3CCn4c(nnc4C(F)(F)F)C3)nc(C(=O)NCCC(=O)O)nc2s1` [Example 4-7, 3-{[6-Propyl-4-(3-trifluoromethyl-5,6-dihydro-8H-[1,2,4]triazolo[4,3-a]pyrazin-7-yl)thieno[2,3-d]pyrimidine-2-carbonyl]amino}propionic acid] are 0.62 µM and 0.32 µM.
In the same order, the values of `CCCc1cc2c(N3CCn4c(nnc4C(F)(F)F)C3)nc(C(=O)NCC(=O)OCC)nc2s1` [Example 4-8, {[6-Propyl-4-(3-trifluoromethyl-5,6-dihydro-8H-[1,2,4]triazolo[4,3-a]pyrazin-7-yl)thieno[2,3-d]pyrimidine-2-carbonyl]amino}acetic acid ethyl ester] are 0.47 µM and 0.55 µM.
For `CCCc1cc2c(N3CCn4c(nnc4C(F)(F)F)C3)nc(C(=O)NCC(=O)O)nc2s1` [Example 4-9, {[6-Propyl-4-(3-trifluoromethyl-5,6-dihydro-8H-[1,2,4]triazolo[4,3-a]pyrazin-7-yl)thieno[2,3-d]pyrimidine-2-carbonyl]amino}acetic acid], the half-maximal inhibitory concentration (IC50) in assay [1] was 1.1 µM. The same molecule came in with a Ki in assay [2] of 5.1 µM.
In the same order, the values of `CCCc1cc2c(N3CCn4c(nnc4C(F)(F)F)C3)nc(C(=O)NCC(O)CO)nc2s1` (stereo not drawn) [Example 4-10, 6-Propyl-4-(3-trifluoromethyl-5,6-dihydro-8H-[1,2,4]triazolo[4,3-a]pyrazin-7-yl)thieno[2,3-d]pyrimidine-2-carboxylic acid (2,3-dihydroxy-propyl)amide] are 1.55 µM and 0.2 µM.
Taken in the same sequence, the figures for `CCCc1cc2c(N3CCn4c(nnc4C(F)(F)F)C3)nc(C(=O)NCCC#N)nc2s1` [Example 4-11, 6-Propyl-4-(3-trifluoromethyl-5,6-dihydro-8H-[1,2,4]triazolo[4,3-a]pyrazin-7-yl)thieno[2,3-d]pyrimidine-2-carboxylic acid (2-cyanoethyl)amide] were 0.66 µM and 0.6 µM.
In the case of `CCCc1cc2c(N3CCn4c(nnc4C(F)(F)F)C3)nc(C(=O)N3CCC(O)C3)nc2s1` (stereo not drawn) [Example 4-12, (3-Hydroxy-pyrrolidin-1-yl)-[6-propyl-4-(3-trifluoromethyl-5,6-dihydro-8H-[1,2,4]triazolo[4,3-a]pyrazin-7-yl)thieno[2,3-d]pyrimidin-2-yl]methanon], the IC50 in assay [1] turned out to be 1.1 µM. The Ki in assay [2] was 0.095 µM.

For the origin of these results see patent US20110166121A1 (LG LIFE SCIENCES LTD., priority 2008, published 2011).
